Results on 2 molecules are retold here after publication PMC8214221, “Sequence determinants in the cathelicidin LL-37 that promote inflammation via presentation of RNA to scavenger receptors” (The Journal of Biological Chemistry, 2021).

Each structure is given as a SMILES string. Residues, ends and D or L forms follow the SMILES beside them.

The test system of assay [1] is Escherichia coli. In words: Bacterial growth inhibition (OD600), E. coli. In kind it is cell-based. Conditions: 0-50 µM overnight, OD 600, n = 3. The method, then: We further looked at mRNA abundance by quantitative RT-PCR (qRT-PCR) to evaluate gene expression for type 1 interferon IFNB1, chemokine CXCL10, and cytokines TSLP and IL6 in NHEKs treated with selected LL-34 parent, LL-34—F5A, I24A, F27A, and L31A—peptides either alone or in combination with U1 dsRNA for 18 h (Fig. 1, E–H).
Methicillin-resistant S. aureus USA300 and methicillin-sensitive S. aureus SA113 (American Type Culture Collection 35556) were cultured in 3% tryptic soy broth overnight at 37 °C with shaking at 250 rpm. GAS M49 strain NZ131 was cultured in Todd Hewitt broth supplemented with 1% yeast extract overnight at 37 °C without shaking. E. coli R1 strain RS218 was cultured in LB broth overnight at 37 °C with shaking at 250 rpm. MIC values were determined using a round-bottom 96-well microdilution method with RPMI cell culture media (as a source of Ca^2+ and Mg^2+) supplemented with tryptic soy broth, Todd Hewitt broth/yeast extract, or LB to facilitate growth of the respective bacterial strains. Overnight bacterial cultures were subcultured into fresh broth and grown to midlate log phase indicated by an absorbance at 600 nm value between 0.8 and 1.0 for each bacterial strain. The absorbance was then normalized to provide a concentration of 1 × 10^7 colony-forming units/ml in RPMI medium. The LL-34 parent and alanine scan mutants were serially diluted into the 96-well microtiter plates containing prewarmed RPMI bacterial growth medium. A 10 μl aliquot of the midlate log phase bacteria was inoculated into the 96-well microtiter plates that contained 95 μl of RPMI medium with or without the LL-34 peptide dilutions and incubated for 16 to 18 h at […] with shaking at 200 rpm. Inhibition of growth was determined by measuring the absorbance at 600 nm readings of each well using a microplate reader (Infinite M200 Pro; Tecan). The MIC of each bacterial strain was determined by the lowest peptide concentration that inhibited more than 80% bacterial growth.
(A) NHEKs and HDMECs (B) were treated with LL34- parent peptide and all the 34 alanine substituted peptides (Pep L1A-Pep R34A) and LL37 at 2 µM for 16 h. IL-6 protein secretion was assessed with ELISA (n=3) (C-F) LL34-Parent, LL34 F5A, LL34 I24A, LL34 F27A, and LL34 L31A peptides were incubated with S. aureus USA 300, S. aureus SA113, Group A Streptococcus (GAS) and E. coli at increasing concentrations (0-50 µM) overnight, and bacterial culture growth was assayed as absorbance at OD 600 (n=3).

Assay [2] deals with U1 dsRNA binding on the surface of NHEKs. In words: Surface binding of Alexa 488-labeled U1 dsRNA to NHEKs. Conditions: Alexa 488 U1 0.05-10 μg/ml + peptide 2.5 μM, 10 min on ice; fluorometer RFU, n = 3. Type of assay: cell-based, human. On the procedure:
We also assayed the dynamics of binding of U1 dsRNA on the surface of NHEKs in the presence of LL-34 mutant peptides. NHEKs were exposed to fluorescent Alexa 488–labeled U1 at increasing concentrations (0.05–10 μg/ml) and LL-34 parent peptide, LL-34 I24A, LL-34 L31A, LL-34 K25A, and LL-34 proline at isoleucine position 20 (I20P) for 10 min on ice to allow for surface binding of U1 to cells in the presence of peptides (Fig. 5A).
Figure 5 Biophysical properties of binding of U1 dsRNA to LL-34 peptides and SRB1 protein.A, NHEKs were treated with Alexa 488–labeled U1 dsRNA or a combination of Alexa 488–labeled U1 dsRNA (0.05–10 μg/ml) and LL-34 peptides LL-34 parent, LL-34 I24A, LL-34 K25A, LL-34 L31A, and LL-34 I20P at 2.5 μM as shown. The cells were prechilled on ice for 15 min before the addition of U1 dsRNA and/or LL-34 peptides, and the surface binding of U1 dsRNA was allowed for 10 min. The amount of U1 dsRNA binding to NHEKs was assessed with a fluorometer, and data are represented as relative fluorescence units (RFUs) (n = 3). B, NHEKs were similarly treated with Alexa-labeled U1 dsRNA (1.5 μg/ml) and/or unlabeled U1 dsRNA (15 μg/ml) with the addition of LL-34 parent peptide at 2.5 μM. The experiment was performed on ice for 10 min, and the relative binding of Alexa 488 U1 dsRNA was assessed on a fluorometer and is shown as RFU (n = 3) (∗p < 0.05) one-way ANOVA. C, SAXS spectra of LL-34 peptides LL-34 parent, LL-34 F5A, LL-34 I24A, and LL-34 L31A incubated with U1 dsRNA. The peptide-U1 dsRNA (P/R) ratio is varied at 1 and 2 for all conditions. The U1 dsRNA interhelical spacing (Q) was calculated by the peak position. The domain size (L) was calculated by the full width at half maximum of the first peak. LL-34, 34-amino acid peptide; NHEKs, normal human epidermal keratinocytes; SAXS, small-angle X-ray scattering.

In the case of `CC[C@H](C)[C@H](NC(=O)[C@H](CCCCN)NC(=O)[C@H](CCC(=O)O)NC(=O)[C@H](CCCCN)NC(=O)[C@H](CO)NC(=O)[C@H](CCCCN)NC(=O)[C@H](CCCNC(=N)N)NC(=O)[C@H](Cc1ccccc1)NC(=O)[C@H](Cc1ccccc1)NC(=O)[C@H](CC(=O)O)NC(=O)CNC(=O)[C@H](CC(C)C)NC(=O)[C@@H](N)CC(C)C)C(=O)NCC(=O)N[C@@H](CCCCN)C(=O)N[C@@H](CCC(=O)O)C(=O)N[C@@H](Cc1ccccc1)C(=O)N[C@@H](CCCCN)C(=O)N[C@@H](CCCNC(=N)N)C(=O)N[C@H](C(=O)N[C@H](C(=O)N[C@@H](CCC(N)=O)C(=O)N[C@@H](CCCNC(=N)N)C(=O)N[C@H](C(=O)N[C@@H](CCCCN)C(=O)N[C@@H](CC(=O)O)C(=O)N[C@@H](Cc1ccccc1)C(=O)N[C@@H](CC(C)C)C(=O)N[C@@H](CCCNC(=N)N)C(=O)N[C@@H](CC(N)=O)C(=O)N[C@@H](C)C(=O)N[C@H](C(=O)N1CCC[C@H]1C(=O)N[C@@H](CCCNC(=N)N)C(=O)O)C(C)C)[C@@H](C)CC)C(C)C)[C@@H](C)CC` [LL-34—L31A] (H-LLGDFFRKSKEKIGKEFKRIVQRIKDFLRNAVPR-OH), in assay [1], the “Action against Gram-negative E. coli” value is on record as “little action”. Besides, the “Binding of Alexa 488-labeled U1 dsRNA on the NHEK cell surface” value in assay [2] is reported as “nonsaturable binding”.
Turning to `CC[C@H](C)[C@H](NC(=O)[C@H](CCCCN)NC(=O)[C@H](CCC(=O)O)NC(=O)[C@H](CCCCN)NC(=O)[C@H](CO)NC(=O)[C@H](CCCCN)NC(=O)[C@H](CCCNC(=N)N)NC(=O)[C@H](Cc1ccccc1)NC(=O)[C@H](Cc1ccccc1)NC(=O)[C@H](CC(=O)O)NC(=O)CNC(=O)[C@H](CC(C)C)NC(=O)[C@@H](N)CC(C)C)C(=O)NCC(=O)N[C@@H](CCCCN)C(=O)N[C@@H](CCC(=O)O)C(=O)N[C@@H](Cc1ccccc1)C(=O)N[C@@H](CCCCN)C(=O)N[C@@H](CCCNC(=N)N)C(=O)N[C@H](C(=O)N[C@H](C(=O)N[C@@H](CCC(N)=O)C(=O)N[C@@H](CCCNC(=N)N)C(=O)N[C@@H](C)C(=O)N[C@@H](CCCCN)C(=O)N[C@@H](CC(=O)O)C(=O)N[C@@H](Cc1ccccc1)C(=O)N[C@@H](CC(C)C)C(=O)N[C@@H](CCCNC(=N)N)C(=O)N[C@@H](CC(N)=O)C(=O)N[C@@H](CC(C)C)C(=O)N[C@H](C(=O)N1CCC[C@H]1C(=O)N[C@@H](CCCNC(=N)N)C(=O)O)C(C)C)C(C)C)[C@@H](C)CC` [LL-34—I24A] (H-LLGDFFRKSKEKIGKEFKRIVQRAKDFLRNLVPR-OH), in assay [1], the “Action against Gram-negative E. coli” value is given as “little action”. Also, the “Binding of Alexa 488-labeled U1 dsRNA on the NHEK cell surface” value in assay [2] is “nonsaturable binding”.
